According to article PMC4335513 (Critical Care, 2015):
In brackets after ≈: the same amount, converted by molar mass. Like-named read-outs stand apart in the source and are kept apart here. *1 amine or outer side, *2 acyl side, *3 side chain or, on linkers, in order; H or OH if unused. Where a SMILES comes first, the peptide text is derived from it. Bridges are numbered along the chain shown (N, C = ends). [ ]: non-standard residue; d: D form. The star is where a group is joined. pTerphenylCO(4''-OnC5H11) = CCCCCOc1ccc(-c2ccc(-c3ccc(C(=O)*)cc3)cc2)cc1; Orn(4R-OH,5R-OH) = O=C([C@H](C[C@@H](O)[C@@H](O)N[*:3])N[*:1])[*:2]; hTyr(3S-OH,4S-OH) = N[C@H](C(=O)O)[C@H](O)[C@@H](O)c1ccc(O)cc1; Pro(3S-OH,4S-Me) = C[C@H]1CN[C@H](C(=O)O)[C@H]1O; Hyp = O=C(O)[C@@H]1C[C@@H](O)CN1

Columns and labels:
[1] = Plasma pharmacokinetics in critically ill ICU patients (DALI study), noncompartmental analysis; format: in vivo, human
Experimental: The Defining Antibiotic Levels in Intensive care unit patients (DALI) study was a prospective, multicenter PK point-prevalence study. The protocol has been published in detail previously, and the participating investigators are listed in Additional file 1).
The choice of antifungal agent and dosing was at the discretion of the treating clinician. Each patient had three blood samples taken: blood sample A was a peak concentration taken 30 minutes after completion of intravenous infusion; blood sample B was a mid-dose blood sample taken 50% of the way through a dosing interval; and blood sample C was a pre-dose concentration taken at the end of a dosing interval (within 30 minutes of the next dose).
The stationary phase was a Kinetex C8 (50 × 2.10 mm, 1.7 μm) UHPLC column (Phenomenex, Torrance, CA, USA).
For anidulafungin analysis, the supernatant was washed with dichloromethane to remove lipid-soluble components. […] The methods were validated for linearity, LLOQ, matrix effects, precision and accuracy, and stock stability by using the FDA criteria for bioanalysis.
Clearance (CL) was calculated by using the equation Dose/AUC0-∞.

[2] = parameters: AUC 0–24: unit not given beside the values; conditions: healthy volunteers; mean (%CV); ref Liu et al. [25]; cited from earlier work
Description: Table 2 Comparison of exposures achieved in this study with other studies (mean (%CV)) | column: Anidulafungin / Liu et al. (healthy volunteers)

[3] = parameters: AUC 0–24: unit not given beside the values; conditions: ICU patients; mean (%CV); ref Liu et al. [25]; cited from earlier work
Description: Table 2 Comparison of exposures achieved in this study with other studies (mean (%CV)) | column: Anidulafungin / Liu et al. (ICU patients)

[4] = Clinical outcome of therapy and mortality at 30 days in ICU patients; format: in vivo, human; conditions: for patients with positive clinical outcome: completion of treatment course without change or addition of antifungal therapy; for 30-day mortality: died by day 30; for patients with indeterminate clinical outcome: outcome of therapy could not be judged
Experimental: (§1) Data collection was performed by trained staff at each participating center and entered into a case report form. Various demographic and clinical data were collected, including age, gender, height, weight, admission diagnosis, presence of extracorporeal circuits (for example, renal replacement therapy), clinical outcome of infection, and mortality at 30 days. A positive clinical outcome of therapy was defined as completion of treatment course without change or addition of antifungal therapy and with no additional antifungals commenced within 48 hours of discontinuation of the therapy, and if the outcome of therapy could not be judged for any reason, it was recorded as indeterminate. Also, organ-function data (including renal function: serum creatinine concentration during studied dosing interval; 24-hour measured urinary creatinine clearance (CrCL) (where available), antibiotic dosing (dose and frequency, time of dosing and sampling, day of antibiotic therapy), and infection data (including known or presumed pathogen and pathogen MIC) were collected.

[5] = surgical ICU patients; ref Nguyen et al. [28]; cited from earlier work
Description: However, variability was higher compared with healthy volunteers (Table 2). This may be attributed to underlying pathophysiological changes that occur in ICU patients. The observed anidulafungin variability in AUC0–24, Cmin, and Cmax was not as high as observed in the study by Liu et al., who recruited a larger cohort of surgical ICU patients but was higher than variability observed in healthy volunteers (Table 2). The PK parameter estimates were ...

[6] = parameters: AUC 0–24: unit not given beside the values; conditions: general patients; mean (%CV); ref Wurthwein et al. [26]; cited from earlier work
Description: Table 2 Comparison of exposures achieved in this study with other studies (mean (%CV)) | column: Caspofungin / Wurthwein et al. (general patients)

[7] = parameters: AUC 0–24: unit not given beside the values; conditions: healthy volunteers; mean (95% CI); ref Stone et al. [27]; cited from earlier work
Description: Table 2 Comparison of exposures achieved in this study with other studies (mean (%CV)) | column: Caspofungin / Stone et al. [27]^a (healthy volunteers)

C. albicans = assay: Pathogen MIC reported for patient isolate; format: cell-based; conditions: Candida albicans
Experimental: as §1

[8] = human, in vivo; cited from earlier work

For `CCCCCOc1ccc(-c2ccc(-c3ccc(C(=O)N[C@H]4C[C@@H](O)[C@@H](O)NC(=O)[C@@H]5[C@@H](O)[C@@H](C)CN5C(=O)[C@H]([C@@H](C)O)NC(=O)[C@H]([C@H](O)[C@@H](O)c5ccc(O)cc5)NC(=O)[C@@H]5C[C@@H](O)CN5C(=O)[C@H]([C@@H](C)O)NC4=O)cc3)cc2)cc1` [Anidulafungin, anidulafungin] ({pTerphenylCO(4''-OnC5H11)}-[Orn(4R-OH,5R-OH)]T[Hyp][hTyr(3S-OH,4S-OH)]T[Pro(3S-OH,4S-Me)]; lactam 1-C), the “AUC 0–24” value ([1]; This study, ICU patients, anidulafungin 100 mg, plasma, UHPLC-MS/MS, linear trapezoidal, mean (%CV), n = 9) was 55 (28), the C max ([1]; This study, ICU patients, anidulafungin 100 mg, plasma, observed peak 30 min after end of iv infusion, mean (%CV), n = 9) was 3.9 (29) and the C min ([1]; This study, ICU patients, anidulafungin 100 mg, plasma, observed pre-dose concentration, mean (%CV), n = 9) was 1.8 (30). The “AUC 0–24” value [2] was 105.0 (22), the C max [2] was 7.0 (22) and the C min [2] was 3.1 (25). For the same compound, the “AUC 0–24” value [3] was 93.0 (41), the C max [3] was 7.7 (56) and the C min [3] was 3.0 (44). For the same compound, the “patients with positive clinical outcome” value [4] was 67%, the 30-day mortality [4] was 11% and the “patients with indeterminate clinical outcome” value [4] was 33%.

For `CC[C@H](C)C[C@H](C)CCCCCCCCC(=O)N[C@H]1C[C@@H](O)[C@@H](NCCN)NC(=O)[C@@H]2[C@@H](O)CCN2C(=O)[C@H]([C@H](O)CCN)NC(=O)[C@H]([C@H](O)[C@@H](O)c2ccc(O)cc2)NC(=O)[C@@H]2C[C@@H](O)CN2C(=O)[C@H]([C@@H](C)O)NC1=O` [Caspofungin, caspofungin], the “AUC 0–24” value ([1]; This study, ICU patients, caspofungin 70 mg (loading dose), 70% sampled on day 1, plasma, UHPLC-MS/MS, mean (%CV)) was 52.0 (53), the C max ([1]; This study, ICU patients, caspofungin 70 mg (loading dose), plasma, observed peak, mean (%CV)) was 3.9 (55) and the C min ([1]; This study, ICU patients, caspofungin 70 mg (loading dose), plasma, observed pre-dose, mean (%CV)) was 1.5 (57). For the same compound, the “Cmin (range observed)” value [5] was 500 to 4100 ng/mL, the “AUC 0–24” value [6] was 170.0 (34) and the C max [6] was 13.8 (31). For the same compound, the “AUC 0–24” value [7] was 97.0 (87–109), the C max [7] was 12.1 (11–13) and the C min [7] was 1.4 (1.1–1.8). For the same compound, the “patients with positive clinical outcome” value [4] was 43%, the 30-day mortality [4] was 29% and the “patients with indeterminate clinical outcome” value [4] was 11%.

With `OC(Cn1cncn1)(Cn1cncn1)c1ccc(F)cc1F` [Fluconazole, fluconazole] the C max ([1]; human, in vivo) was 20 (14), the “AUC 0–24” value ([1]; human, in vivo, SD) was 359 (259) and the MIC (C. albicans) was 0.75 µg/mL (≈ 2.45 µM). The “AUC 0–24” value [8] was 409 (336–482), the C max [8] was 25 (22–28) and the “patients with positive clinical outcome” value [4] was 27%. For the same compound, the 30-day mortality [4] was 47% and the “patients with indeterminate clinical outcome” value [4] was 40%.
